In this experiment the test system is Swiss mice, Sarcoma 180 sc, mean tumor weight T/C. Briefly: NCI In Vivo Anticancer Drug Screen. Data for tumor model Sarcoma 180 (subcutaneous) in Swiss mice. The conditions noted are these: endpoint: mean tumor weight, higher = larger tumour. Put shortly: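 Antitumor activity is assessed in mice with transplantable tumors. Treated (T) and vehicle control (C) groups are compared on survival or tumor size.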

“And” between values parts separate entries of the source, which are not always exact repeats. Equal entries are not always repeated. Square brackets hold non-standard residues; d marks the D form. Peptide text beside a SMILES is read from it. Ac5c = NC1(C(=O)O)CCCC1

Results on ten compounds are retold here after PubChem BioAssay AID342 (DTP/NCI, 2004).

Turning to `CN(C)c1nc(N(C)C)nc(N(C)C)n1`, the T/C is, setting by setting: (dose: 7.34 mg/kg/injection, schedule: Q#A X014 (ip), vehicle: carboxymethylcellulose (CMC)) 86 % of control; (dose: 14.67 mg/kg/injection, schedule: Q#A X014 (ip), vehicle: carboxymethylcellulose (CMC)) 90 % of control; (dose: 22.5 mg/kg/injection, schedule: Q01DX007 (ip), vehicle: carboxymethylcellulose (CMC)) 117 % of control; (dose: 23.45 mg/kg/injection, schedule: Q#A X014 (ip), vehicle: other) 91 % of control; (dose: 25.0 mg/kg/injection, schedule: Q01DX007 (ip), vehicle: methylcellulose (MC)) 64 % of control; (dose: 25.0 mg/kg/injection, schedule: Q01DX007 (oral), vehicle: carboxymethylcellulose (CMC)) 58 % of control. Moreover, the T/C is 102 % of control (dose: 25.0 mg/kg/injection, schedule: Q01DX007 (oral), vehicle: methylcellulose (MC)); 75 % of control (dose: 29.35 mg/kg/injection, schedule: Q#A X014 (ip), vehicle: carboxymethylcellulose (CMC)); 80 % of control (dose: 29.35 mg/kg/injection, schedule: Q#A X014 (ip), vehicle: other); 53 % of control (dose: 31.25 mg/kg/injection, schedule: Q#A X014 (ip), vehicle: carboxymethylcellulose (CMC)); 83 % of control (dose: 39.1 mg/kg/injection, schedule: Q#A X014 (ip), vehicle: other); 88 % of control (dose: 45.0 mg/kg/injection, schedule: Q01DX007 (ip), vehicle: carboxymethylcellulose (CMC)). Moreover, the T/C by setting is: (dose: 46.9 mg/kg/injection, schedule: Q01DX007 (ip), vehicle: other) 49 % of control; (dose: 50.0 mg/kg/injection, schedule: Q01DX007 (ip), vehicle: methylcellulose (MC)) 61 % of control; (dose: 50.0 mg/kg/injection, schedule: Q01DX007 (oral), vehicle: carboxymethylcellulose (CMC)) 87 % of control; (dose: 50.0 mg/kg/injection, schedule: Q01DX007 (oral), vehicle: methylcellulose (MC)) 116 % of control; (dose: 58.7 mg/kg/injection, schedule: Q01DX007 (ip), vehicle: other) 51 % of control; (dose: 58.7 mg/kg/injection, schedule: Q#A X014 (ip), vehicle: other) 77 % of control. Also, the T/C is 26 % of control (dose: 62.5 mg/kg/injection, schedule: Q#A X014 (ip), vehicle: carboxymethylcellulose (CMC)); 54 % of control (dose: 78.2 mg/kg/injection, schedule: Q01DX007 (ip), vehicle: other); 77 % of control (dose: 90.0 mg/kg/injection, schedule: Q01DX007 (ip), vehicle: carboxymethylcellulose (CMC)); 75 % of control (dose: 100.0 mg/kg/injection, schedule: Q01DX007 (ip), vehicle: methylcellulose (MC)); 67 % of control (dose: 100.0 mg/kg/injection, schedule: Q01DX007 (oral), vehicle: carboxymethylcellulose (CMC)); 108 % of control (dose: 100.0 mg/kg/injection, schedule: Q01DX007 (oral), vehicle: methylcellulose (MC)). Also, the T/C (dose: 117.4 mg/kg/injection, schedule: Q01DX007 (ip), vehicle: other) was 40 % of control; the T/C (dose: 200.0 mg/kg/injection, schedule: Q01DX007 (ip), vehicle: methylcellulose (MC)) is 94 % of control; the T/C (dose: 200.0 mg/kg/injection, schedule: Q01DX007 (oral), vehicle: carboxymethylcellulose (CMC)) is 57 % of control; the T/C (dose: 200.0 mg/kg/injection, schedule: Q01DX007 (oral), vehicle: methylcellulose (MC)) was 114 % of control.
As for `CC(C)=C(Br)CC[C@@H](C)[C@H]1CC[C@@]2(C)C3=C(CC[C@]12C)[C@@]1(C)CC[C@H](O)C(C)(C)[C@@H]1CC3`, the T/C (dose: 62.0 mg/kg/injection, schedule: Q01DX007 (sc), vehicle: steriod suspending solution) was 109 % of control; the T/C (dose: 125.0 mg/kg/injection, schedule: Q01DX007 (sc), vehicle: steriod suspending solution) was 97 % of control; the T/C (dose: 500.0 mg/kg/injection, schedule: Q01DX007 (sc), vehicle: steriod suspending solution) was 183 % of control.
For the compound `CCN(CC)P(=O)(N1CC1)N1CC1`, the T/C is, setting by setting: (dose: 1.0 mg/kg/injection, schedule: Q#A X014 (ip), vehicle: methylcellulose (MC)) 64 % of control; (dose: 1.0 mg/kg/injection, schedule: Q#A X014 (ip), vehicle: saline) 90 % of control and 92 % of control; (dose: 1.5 mg/kg/injection, schedule: Q#A X014 (ip), vehicle: methylcellulose (MC)) 60 % of control; (dose: 2.0 mg/kg/injection, schedule: Q#A X014 (ip), vehicle: methylcellulose (MC)) 82 % of control; (dose: 3.0 mg/kg/injection, schedule: Q#A X014 (ip), vehicle: saline) 19 % of control and 38 % of control; (dose: 4.0 mg/kg/injection, schedule: Q01DX007 (ip), vehicle: saline) 48 % of control.
For the compound `COC1C(O)CC(=O)OC(C)C/C=C/C=C/C(OC2CCC(N(C)C)C(C)O2)C(C)CC(CC=O)C1OC1OC(C)C(OC2CC(C)(O)C(O)C(C)O2)C(N(C)C)C1O` (configuration not stated), the T/C reads like this: (dose: 44.0 mg/kg/injection, schedule: Q01DX007 (ip), vehicle: water) 124 % of control; (dose: 66.0 mg/kg/injection, schedule: Q01DX007 (ip), vehicle: water) 85 % of control; (dose: 100.0 mg/kg/injection, schedule: Q01DX007 (ip), vehicle: water) 123 % of control; (dose: 150.0 mg/kg/injection, schedule: Q01DX007 (ip), vehicle: water) 95 % of control; (dose: 225.0 mg/kg/injection, schedule: Q01DX007 (ip), vehicle: water) 110 % of control; (dose: 337.0 mg/kg/injection, schedule: Q01DX007 (ip), vehicle: water) 72 % of control.
In the case of `COc1ccc(-c2cc(=O)c3c(O)cc(OC)cc3o2)cc1`, the T/C (dose: 220.0 mg/kg/injection, schedule: Q01DX007 (ip), vehicle: saline) was 76 % of control; the T/C (dose: 330.0 mg/kg/injection, schedule: Q01DX007 (ip), vehicle: saline) was 66 % of control; the T/C (dose: 500.0 mg/kg/injection, schedule: Q01DX007 (ip), vehicle: saline) is 81 % of control.
As to `Nc1nc(SC2=NCCN2)c2[nH]cnc2n1`, the T/C runs as follows: (dose: 1.25 mg/kg/injection, schedule: Q01DX007 (ip), vehicle: carboxymethylcellulose (CMC)) 57 % of control; (dose: 2.5 mg/kg/injection, schedule: Q01DX007 (ip), vehicle: carboxymethylcellulose (CMC)) 67 % of control; (dose: 5.0 mg/kg/injection, schedule: Q01DX007 (ip), vehicle: carboxymethylcellulose (CMC)) 57 % of control.
As to `NC1(C(=O)NC2(C(=O)O)CCCC2)CCCC1` (H-[Ac5c]-[Ac5c]-OH), the T/C is 66 % of control (dose: 7.5 mg/kg/injection, schedule: Q#A X014 (ip), vehicle: carboxymethylcellulose (CMC)); 65 % of control (dose: 15.0 mg/kg/injection, schedule: Q#A X014 (ip), vehicle: carboxymethylcellulose (CMC)); 58 % of control (dose: 30.0 mg/kg/injection, schedule: Q#A X014 (ip), vehicle: carboxymethylcellulose (CMC)); 32 % of control (dose: 60.0 mg/kg/injection, schedule: Q#A X014 (ip), vehicle: carboxymethylcellulose (CMC)).
`Cc1cc2nc3c(=O)[nH]c(=O)nc-3n(CC(O)C(O)C(O)C(O)CO)c2cc1C` (configuration not stated): the T/C is, setting by setting: (dose: 31.25 mg/kg/injection, schedule: Q01DX007 (ip), vehicle: carboxymethylcellulose (CMC)) 87 % of control; (dose: 38.25 mg/kg/injection, schedule: Q01DX007 (ip), vehicle: carboxymethylcellulose (CMC)) 54 % of control; (dose: 62.5 mg/kg/injection, schedule: Q01DX007 (ip), vehicle: carboxymethylcellulose (CMC)) 66 % of control; (dose: 76.5 mg/kg/injection, schedule: Q01DX007 (ip), vehicle: carboxymethylcellulose (CMC)) 48 % of control; (dose: 125.0 mg/kg/injection, schedule: Q01DX007 (ip), vehicle: carboxymethylcellulose (CMC)) 83 % of control; (dose: 153.0 mg/kg/injection, schedule: Q01DX007 (ip), vehicle: carboxymethylcellulose (CMC)) 63 % of control. Also, the T/C by setting is: (dose: 250.0 mg/kg/injection, schedule: Q01DX007 (ip), vehicle: carboxymethylcellulose (CMC)) 60 % of control; (dose: 306.0 mg/kg/injection, schedule: Q01DX007 (ip), vehicle: carboxymethylcellulose (CMC)) 57 % of control.
For the compound `CCCCCCCCCCCCCCCC[N+]1(C)CCN(SN2CC[N+](C)(CCCCCCCCCCCCCCCC)CC2)CC1`, the T/C reads like this: (dose: 21.0 mg/kg/injection, schedule: Q#A X014 (ip), vehicle: saline) 55 % of control and 77 % of control; (dose: 31.5 mg/kg/injection, schedule: Q#A X014 (ip), vehicle: saline) 53 % of control and 76 % of control; (dose: 47.5 mg/kg/injection, schedule: Q#A X014 (ip), vehicle: saline) 65 % of control; (dose: 71.5 mg/kg/injection, schedule: Q#A X014 (ip), vehicle: saline) 37 % of control.
Take `O=C(CCBr)N1CCCN(C(=O)CCBr)CC1`: the T/C (dose: 147.0 mg/kg/injection, schedule: Q01DX007 (ip), vehicle: carboxymethylcellulose (CMC)) is 49 % of control and the T/C (dose: 223.0 mg/kg/injection, schedule: Q01DX007 (ip), vehicle: carboxymethylcellulose (CMC)) was 46 % of control.
